Results taken from ChEMBL document CHEMBL3865818, “4,5-Diaryl-3H-1,2-dithiole-3-thiones and related compounds as combretastatin A-4/oltipraz hybrids: Synthesis, molecular modelling and evaluation as antiproliferative agents and inhibitors of tubulin” (Eur J Med Chem, 2016).
Activity calls are given as the source filed them. The rule behind the calls is not given here.

Experiments:
[1] = Antiproliferative activity against human KB cells measured after 72 hrs by MTT assay; format: functional, cell-based
[2] = Antiproliferative activity against human SGC7901 cells measured after 72 hrs by MTT assay; format: functional, cell-based; conditions: SGC-7901, 72 h
[3] = Antiproliferative activity against human HT1080 cells measured after 72 hrs by MTT assay; format: functional, cell-based; conditions: HT-1080, 72 h
[4] = Inhibition of porcine brain tubulin polymerization measured after 60 mins by fluorescence analysis; parameters: species or system Sus scrofa
[5] = Antitumor activity against mouse SVR cells implanted in athymic nude mouse assessed as tumor growth inhibition at 250 mg/kg, po qd for 10 days measured on day 4 relative to control; conditions: read-out: TGI
[6] = Cell cycle arrest in human KB cells assessed as accumulation at G2/M-phase at 0.2 uM measured up to 60 hrs by propidium iodide staining-based flow cytometry; format: functional
[7] = Cell cycle arrest in human KB cells assessed as accumulation at G2/M-phase up to 0.2 uM measured after 24 hrs by propidium iodide staining-based flow cytometry; format: functional

Row | Compound | IC50 [1] [µM] | IC50 [2] [µM] | IC50 [3] [µM] | IC50 [4] [µM] | inhibition in vivo at 250 mg/kg [5] [%] | Activity [6] | Activity [7]
1 | CO/N=c1/ssc(-c2cc(OC)c(OC)c(OC)c2)c1-c1ccc(OC)c([N+](=O)[O-])c1 | > 100 | > 100 | > 100 |  |  |  | 
2 | COc1ccc(/C=C\c2cc(OC)c(OC)c(OC)c2)cc1O [COMBRETASTATIN A4] | 0.007 | 0.026 | 0.01 | 0.92 |  |  | 
3 | COc1ccc(-c2c(-c3cc(OC)c(OC)c(OC)c3)ssc2=O)cc1N | > 100 | > 100 | > 100 |  |  |  | 
4 | COc1ccc(-c2c(-c3cc(OC)c(OC)c(OC)c3)ssc2=O)cc1 | > 100 | > 100 | > 100 |  |  |  | 
5 | COc1ccc(-c2ssc(=S)c2-c2cc(OC)c(OC)c(OC)c2)cc1 | 4.91 | 21.1 | 18.6 |  |  |  | 
6 | COc1ccc(-c2c(-c3cc(OC)c(OC)c(OC)c3)ssc2=O)cc1[N+](=O)[O-] | > 100 | > 100 | > 100 |  |  |  | 
7 | COc1ccc(-c2ssc(=S)c2-c2cc(OC)c(OC)c(OC)c2)cc1O | 0.435 | 0.271 | 0.231 |  |  |  | 
8 | COc1ccc(-c2c(-c3cc(OC)c(OC)c(OC)c3)ss/c2=N/O)cc1[N+](=O)[O-] | 5.26 | 6.56 | 3.03 |  |  |  | 
9 | COc1ccc(-c2ssc(=O)c2-c2cc(OC)c(OC)c(OC)c2)cc1 | 0.324 | 0.134 | 0.464 |  |  |  | 
10 | COc1ccc(-c2c(-c3cc(OC)c(OC)c(OC)c3)ssc2=S)cc1 | 1.14 | 2.35 | 2.27 |  |  |  | 
11 | COc1ccc(-c2ss/c(=N/O)c2-c2cc(OC)c(OC)c(OC)c2)cc1O | 0.85 | 0.2 | 0.73 |  |  |  | 
12 | COc1ccc(-c2c(-c3cc(OC)c(OC)c(OC)c3)ss/c2=N/O)cc1N | 2.91 | 2.91 | 2.91 |  |  |  | 
13 | CO/N=c1/ssc(-c2ccc(OC)c(N)c2)c1-c1cc(OC)c(OC)c(OC)c1 | 4.33 | > 100 | 4.23 |  |  |  | 
14 | COc1ccc(-c2c(-c3cc(OC)c(OC)c(OC)c3)ssc2=S)cc1N | 2.17 | 2.62 | 3 |  |  |  | 
15 | COc1ccc(-c2ssc(=S)c2-c2cc(OC)c(OC)c(OC)c2)cc1N | 0.327 | 0.444 | 0.834 |  |  |  | 
16 | Cc1c(-c2cnccn2)ssc1=S [OLTIPRAZ] |  |  |  |  | 81 |  | 
17 | COc1ccc(-c2ssc(=O)c2-c2cc(OC)c(OC)c(OC)c2)cc1O | 0.46 | 3.11 | 1.91 | 9.71 |  | Active | Active
18 | CO/N=c1/ssc(-c2cc(OC)c(OC)c(OC)c2)c1-c1ccc(OC)c(N)c1 | 0.517 | 1.96 | 0.915 |  |  |  | 
19 | COc1ccc(-c2c(-c3cc(OC)c(OC)c(OC)c3)ssc2=S)cc1[N+](=O)[O-] | 38.2 | 44.7 | 3.55 |  |  |  | 
20 | COc1ccc(-c2ssc(=S)c2-c2cc(OC)c(OC)c(OC)c2)cc1[N+](=O)[O-] | > 100 | 13.6 | 9.14 |  |  |  | 
21 | COc1ccc(-c2c(-c3cc(OC)c(OC)c(OC)c3)ss/c2=N/O)cc1 | > 100 | > 100 | > 100 |  |  |  | 
22 | COc1ccc(-c2ssc(=O)c2-c2cc(OC)c(OC)c(OC)c2)cc1[N+](=O)[O-] | 22.3 | 0.44 | 4.22 |  |  |  | 
23 | COc1ccc(-c2ss/c(=N/O)c2-c2cc(OC)c(OC)c(OC)c2)cc1N | 0.099 | 4.3 | 9.36 | 12.8 |  | Active | Active
24 | COc1ccc(-c2ss/c(=N/O)c2-c2cc(OC)c(OC)c(OC)c2)cc1 | 13.7 | 17.4 | 6.66 |  |  |  | 
25 | CO/N=c1/ssc(-c2ccc(OC)c(O)c2)c1-c1cc(OC)c(OC)c(OC)c1 | 14.5 | 10 | 4.6 |  |  |  | 
